Assays:
total cholesterol = experiment: Anti-hyperlipemia activity, total cholesterol in blood; assay type: in vivo, rabbit (Japanese white male); details: oral, 300 mg/kg once; for Reduction of cholesterol level after 3 hrs.: negative = raising
Description: (§1) Japanese white male rabbits were fed for 3 months with a solid diet containing 1% of cholesterol taken ad lib, and after confirming the raised lipid content of the serum of the rabbits, they were utilized as model animals suffering from experimental arteriosclerosis. Each of the present compounds was administered orally as a solution or dispersion in distilled water to the experimental animals of each group at a dose rate of 300 mg/kg once, and blood samples were taken at a predetermined time interval from the auricular vein of each animal. The content of cholesterol in the blood specimen was traced as the time passed by, with an enzymatic method, and the content of beta-lipoprotein in the same blood specimen was traced with a colorimetry. Each value in Table 7 is the difference between the level just before administration and the level after 3 or 6 hours of the administration.

in vivo = details: mouse, in vivo, po, mice, 7 days observation, read-out: LD50, acute oral toxicity
acetic acid writhing = experiment: Analgetic activity against chemical stimulation of acetic acid (writhing); assay type: in vivo, mouse (ICR female); details: Mus musculus, po, 30 min before 0.6% acetic acid, read-out: I.R. of writhing
Description: (§2) Rate of inhibition (I.R.) (%)=(1-T/C)×100
T represents the average number of writhing of the group of mice administered with the present compound and injected with acetic acid, and C represents the average number of writhing of the group of mice only injected with acetic acid (control).

level of blood sugar = experiment: Anti-hyperglycemia activity (reduction of blood sugar level); assay type: in vivo, rat (Wistar, streptozotocin); details: oral, 300 mg/kg
Description: A group of Wistar rats to which at first streptozotocin was interperitoneally administered at a rate of 60 mg/kg and of which the positivity of glycosuria was confirmed after a week of the administration and to which regular insulin was further administered and of which the reduction of levels of glucose in urine and blood was once confirmed, however, of which hyperglycemia and hyperglycosuria were again confirmed after a few days was chosen and used as model animals of glycosuria in the following test. After orally administering each of the present compounds to the model animals at a dose of 300 mg/kg body weight, as a solution or dispersion in distilled water, the blood was collected two times, respectively after 3 and 6 hours of the administration.

exudation = experiment: Anti-exudation activity (air pouch, croton oil); assay type: in vivo, rat; details: Rattus norvegicus, po, 144 h, 5 days, read-out: I.R. against exudation
Description: Following the method of Baris et al. (1965), air was injected subcutaneously into the back of groups of rats, each group consisting of 6 animals to make an air pouch, and 0.5 ml of sesame oil containing 1% by weight of croton oil was injected into the air pouch. Each of the present compounds was orally administered forcibly to each of the groups of rats as a solution or dispersion in distilled water at a dose rate of 1000 mg/kg/day for continued five days. The amount of liquid exudated into the air pouch was measured on 6th day of the operation. The rate of inhibiting the exudation of the liquid was obtained by the same manner as in (5-2) and the results are shown also in Table 8.

[1] = tested on: pyrexia (Saccharomyces cerevisiae); experiment: Anti-pyrexia activity (yeast-induced); assay type: in vivo; details: Rattus norvegicus, oral, read-out: Rate of inhibiting pyrexia (I.R.)
Description: Following the method of Winter et al. (1961), an aqueous dispersion of 20% by weight of Saccharomyces cerevisiae was subcutaneously injected into groups of rats, each group consisting of 6 animals, and after 10-hour fasting, 1000 mg/kg of each of the present compounds was orally administered to the rat as a solution of dispersion in distilled water, and then the rectal temperature of the rat was measured at a predetermined interval of time to find the lowest temperature.
The anti-pyrexia activity of each compound was obtained from the following formula: […]
Anti-pyrexia activity represented by the rate of inhibition (I.R.)
C2 represents the average rectal temperature of negative control (non-treatment), not injected with the yeast and not administered with the present compound,
C1 represents the average temperature of positive control, injected with the yeast and not administered with the compound and T represents the temperature of tested animals, injected with the yeast and administered with the present compound.

cotton pellet granuloma = experiment: Anti-granuloma activity (cotton pellet); assay type: in vivo, rat; details: Rattus norvegicus, po, 192 h, 7 days, read-out: I.R. against cotton pellet edema
Description: Following the method of Winter et al. (1963), each two cotton wool pellets, each weighing 30±1 mg, were implanted into the back of each rats of groups of rats, each group consisting of 6 animals, at the positions of mutually symmetrical concerning the median line of the rat. To these groups of the thus operated rats, the present compounds were respectively administered orally and forcibly as a solution or dispersion in distilled water for 7 continuous days, once a day at a dose of 1000 mg/kg/day. On 8th day of the implantation, the granuloma was extirpated and the dry weight of the granuloma was measured, the rate of inhibiting the proliferation of granuloma being obtained as in (5-1) being shown in Table 8.

Sarcoma-180 = experiment: Anti-tumour activity against Sarcoma-180; assay type: in vivo, mouse (ICR-JCL); details: Mus musculus, Sarcoma-180, po, 600 h, 10 times every other day, tumour weight on 25th day, read-out: Antitumour activity, inhibiting rate (I.R.)
Description: Sarcoma-180 was transplanted into the axillary part of ICR-JCL mice at a rate of 1×10^6 cells/animal, and after 24 hours of transplantation, each of the present compounds as a solution or dispersion in sterilized physiological saline solution was orally administered to each of the transplanted mice 10 times every other day at a dose of 500 mg/kg/time. On 25th day of the transplantation, tumour node(s) were extirpated from all the mice to determine the weight of the tumour nodes.
Antitumour activity (activity of inhibiting the proliferation of the transplanted sarcoma) of each of the present compounds was derived by the following formula and shown in Table 6:
Antitumour activity (Inhibiting rate, I.R.)=(1-T/C)×100(%).
T represents the total weight of tumour nodes of the group of mice transplanted and administered with the present compound, and
C represents the total weight of tumour nodes of the group of mice transplanted, however, not administered with any agents.

blood pressure = experiment: Anti-hypertension activity (reduction of blood pressure); assay type: in vivo, rat (spontaneous hypertension); details: oral, 300 mg/kg
Description: Rats of spontaneous hypertension were orally administered with each of the present compounds as a solution or dispersion in distilled water at a dose rate of 300 mg/kg body weight. After 3 and 6 hours of the administration, the blood pressure of each rat was determined, and the difference between the above-determined value and the value just before the administeration was used as the index of the activity of reducing the blood pressure of the compound.

[2] = tested on: pseudo-escaping reaction to tail pressure; experiment: Analgetic activity against mechanical stimulation of pressure; assay type: in vivo, mouse (ICR female); details: oral, 1000 mg/kg
beta-lipoprotein = experiment: Anti-hyperlipemia activity, beta-lipoprotein in blood; assay type: in vivo, rabbit (Japanese white male); details: oral, 300 mg/kg once
Description: as §1

carrageenin edema = experiment: Anti-Carrageenin edema activity; assay type: in vivo, rat; details: Rattus norvegicus, po, 1000 mg/kg once, read-out: I.R. against carrageenin edema
Description: After orally administering each of the present compounds forcibly to each group of rats, composed of 10 animals, as a solution or dispersion in distilled water at a dose of 1000 mg/kg once, 0.1 ml of an aqueous dispersion of 1% carrageenin in aqueous physiological saline solution was injected into the foot pad of the right hind leg of the administered animal following Van Arman et al. (1963). Thereafter, the thickness of the foot pad was measured at a time interval to find the rate of inhibiting of the swelling of the foot pad according to the following formula:
as §2
T means the average volume of the foot pad of the animals administered with one of the present compounds and carrageenin, and
C means that of the animal not administered with the present compound, however, administered with carrageenin.

SMILES	Reduction of cholesterol level after 3 hrs. (total cholesterol)	Reduction of cholesterol level after 6 hrs. (total cholesterol)	LD50 at 168 h (in vivo)	inhibition in vivo at 1000 mg/kg (acetic acid writhing)	Reduced level of blood sugar after 3 hrs. (level of blood sugar)	Reduced level of blood sugar after 6 hrs. (level of blood sugar)	inhibition in vivo at 1000 mg/kg/day (exudation)	inhibition in vivo at 1000 mg/kg [1]	inhibition in vivo at 1000 mg/kg/day (cotton pellet granuloma)	inhibition in vivo at 500 mg/kg (Sarcoma-180)	Reduced level of blood pressure after 3 hrs. (blood pressure)	Reduced level of blood pressure after 6 hrs. (blood pressure)	Pseudo-escapting reaction pressure [2]	Pseudo-escapting reaction time [2]	Reduction of beta-lipoprotein level after 3 hrs. (beta-lipoprotein)	Reduction of beta-lipoprotein level after 6 hrs. (beta-lipoprotein)	inhibition in vivo at 1000 mg/kg (carrageenin edema)
O=C(Oc1ccccc1)c1ccc(NC2O[C@H](CO)[C@@H](O[C@H]3O[C@H](CO)[C@@H](O[C@H]4O[C@H](CO)[C@@H](O)[C@H](O)[C@H]4O)[C@H](O)[C@H]3O)[C@H](O)[C@H]2O)cc1 (stereo partly shown) [Compound 10, phenyl p-aminobenzoate-N-maltotrioside]	-5 mg/dL	33 mg/dL	12400 mg/kg	30%	99 mg/dL	106 mg/dL	7.5%	41%	19.6%	39%	18 mm Hg	18 mm Hg	86 mmHg	36 s	106 mg/dL	111 mg/dL	6.6%
C[C@@H]1OC(Nc2cccc(C(=O)OCc3ccccc3)c2)[C@@H](O)[C@H](O)[C@@H]1O (stereo partly drawn) [Compound 11, benzyl m-aminobenzoate-N-L-fucoside]	-1 mg/dL	50 mg/dL	9700 mg/kg	17%	75 mg/dL	88 mg/dL	11%	29%	4.4%	40%	21 mm Hg	25 mm Hg	74 mmHg	35 s	98 mg/dL	109 mg/dL	22.8%
O=C(OCc1ccccc1)c1cccc(NC2O[C@H](CO)[C@@H](O[C@@H]3O[C@H](CO)[C@H](O)[C@H](O)[C@H]3O)[C@H](O)[C@H]2O)c1 (stereo partly shown) [Compound 12, benzyl m-aminobenzoate-N-lactoside]	7 mg/dL	48 mg/dL	11500 mg/kg	33%	52 mg/dL	95 mg/dL	10.7%	17%	8.4%	37%	16 mm Hg	18 mm Hg	90 mmHg	42 s	121 mg/dL	124 mg/dL	18.7%
O=C(OCc1ccccc1)c1ccc(NC2C[C@H](O)[C@H](O)CO2)cc1 (stereo partly drawn) [Compound 13, benzyl p-aminobenzoate-N-D-deoxyriboside]	4 mg/dL	35 mg/dL	9200 mg/kg	24%	108 mg/dL	113 mg/dL	23.5%	39%	4.2%	38%	20 mm Hg	21 mm Hg	82 mmHg	40 s	135 mg/dL	144 mg/dL	7%
O=C(OCc1ccccc1)c1ccc(NC2O[C@H](CO)[C@@H](O)[C@H](O)[C@H]2O)cc1 (stereo partly drawn) [Compound 14, benzyl p-aminobenzoate-N-D-glucoside]	3 mg/dL	38 mg/dL	11700 mg/kg	39%	65 mg/dL	93 mg/dL	6.9%	56%	23.3%	42%	24 mm Hg	24 mm Hg	92 mmHg	44 s	143 mg/dL	146 mg/dL	5.1%

— patent US4372948A, “Derivative of saccharide and physiologically active agent containing the same” (Kureha Kagaku Kogyo Kabushiki Kaisha, priority 1980, dated 1983)
